#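 Briefly, cells in 96-well plates were exposed to five compound concentrations for 48 h, and endpoints were estimated by linear interpolation. GI50 is the concentration that inhibits growth by half.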 Activity calls are given as the source filed them. Rule as the data show it: active = GI50 up to about 1.1 µM and inactive = higher.
# Columns and labels:
# Test in all cases: NCI-60 cell line screen, 48 h
# BT-549 = system: BT-549
# DLD-1 = system: DLD-1
# HOP-18 = system: HOP-18
# KM-20L2 = system: KM-20L2
# LXFL 529 = system: LXFL 529
# M19-MEL = system: M19-MEL
# SNB-78 = system: SNB-78
# XF498 = system: XF498
# RXF 631 = system: RXF 631
Structure (SMILES),GI50 (BT-549),GI50 (KM-20L2),GI50 (LXFL 529),other results
COc1ccc(Oc2cnn(C(Br)(Br)C(C)=O)c(=O)c2Br)cc1,17.3 µM (inactive),,,
COc1ccc(OC)c(-c2cc(O)c3cc4c(cc3n2)OCO4)c1,,4.14 µM (inactive),6.92 µM (inactive),GI50 (DLD-1): 3.57 µM (inactive); GI50 (HOP-18): > 96.2 µM (inactive); GI50 (M19-MEL): 4.21 µM (inactive); GI50 (SNB-78): 6.98 µM (inactive); GI50 (XF498): 4.42 µM (inactive)
Cc1cn(C(=O)NC23CC4CC(CC(C4)C2)C3)c(=O)[nH]c1=O,21.8 µM (inactive),,,
Cc1ccc2c(c1C)CC1(Cc3ccc(C)c(C)c3C1=O)C2=O (stereo not drawn),> 100 µM (inactive),,,
CCOC(=O)c1cc(C#N)[nH]c1-c1ccsc1,34.8 µM (inactive),,,
CN(C)C1(N(C)C)Oc2c(c(=O)n(C)c(=O)n2C)C(c2ccccc2Br)C1(F)F (stereo not drawn),> 100 µM (inactive),,,
COc1ccc(/C=C(\C#N)c2nc3ccccc3c(=O)[nH]2)cc1,15.5 µM (inactive),,,
O=C(O)c1nc(-c2ccccn2)c(-c2ccccn2)nc1C(=O)O,4.01 µM (inactive),,,
CCc1cc(Cc2cc(CC)c(NC(=O)C(=O)Cc3ccccn3)c(CC)c2Cl)c(Cl)c(CC)c1NC(=O)C(=O)Cc1ccccn1,,> 100 µM (inactive),53 µM (inactive),GI50 (DLD-1): > 100 µM (inactive); GI50 (HOP-18): > 100 µM (inactive); GI50 (M19-MEL): > 100 µM (inactive); GI50 (SNB-78): > 100 µM (inactive); GI50 (XF498): > 100 µM (inactive)
CC(C)C12Cc3c(ccc4ccccc34)OC1(C)Oc1ccc3ccccc3c1C2 (stereo not drawn),,> 100 µM (inactive),> 100 µM (inactive),GI50 (DLD-1): > 100 µM (inactive); GI50 (SNB-78): > 100 µM (inactive); GI50 (XF498): > 100 µM (inactive)
COC(=O)C1=C(OC(=O)/C(=C/c2ccc(Cl)cc2Cl)c2ccc(Cl)cc2Cl)C(C(=O)OC)[C@@]2(O)[C@@H](C(=O)OC)[C@H](C)C[C@@H]1[C@@H]2C(=O)OC (stereo partly drawn),> 100 µM (inactive),,,
N#CC(C#N)=CNCCN1CCN(C=C(C#N)C#N)CC1,> 100 µM (inactive),,,
O=C(O)CSC(NC(=O)C(C(F)(F)F)C(F)(F)F)(C(F)(F)F)C(F)(F)F,> 100 µM (inactive),,,
CCOC(=O)/C(C#N)=C/c1[nH]c(C)c(C)c1C,,> 100 µM (inactive),> 100 µM (inactive),GI50 (DLD-1): > 100 µM (inactive); GI50 (HOP-18): > 100 µM (inactive); GI50 (M19-MEL): > 100 µM (inactive); GI50 (SNB-78): > 100 µM (inactive); GI50 (XF498): > 100 µM (inactive)
Cc1cc(=O)n2nc(SCc3ccccc3)sc2n1,> 100 µM (inactive),,,
Cc1cc(C)nc(NC(P(=O)(O)O)P(=O)(O)O)n1,> 100 µM (inactive),,,
O=C(CCl)Nc1ccc(C(=O)N/N=C/c2ccc(Cl)cc2)cc1,1.88 µM (inactive),11.9 µM (inactive),1.71 µM (inactive),GI50 (DLD-1): 2.18 µM (inactive); GI50 (M19-MEL): 12.8 µM (inactive); GI50 (SNB-78): 3.52 µM (inactive); GI50 (XF498): 1.19 µM (inactive)
CN(C)CCNC(=O)c1ccc(NCCCN(C)CCCNc2ccc3c(=O)n(CCN(C)C)c(=O)n4c5ccccc5c(=O)c2c34)c2c(O)c3ccccc3nc12,0.213 µM (active),,,
CCOC(=O)C(=O)Nc1cc(Cl)c(Cl)cc1Cl,,> 100 µM (inactive),> 100 µM (inactive),GI50 (M19-MEL): > 100 µM (inactive); GI50 (RXF 631): > 100 µM (inactive); GI50 (SNB-78): > 100 µM (inactive)
CN(C)CN(C)c1nc(N(C)C)nc(N(C)CN(C)C)n1,,74.5 µM (inactive),30.3 µM (inactive),GI50 (DLD-1): 42.7 µM (inactive); GI50 (HOP-18): > 100 µM (inactive); GI50 (M19-MEL): 31.8 µM (inactive); GI50 (XF498): 96.2 µM (inactive)
COc1ccc(OC)c(NC(=O)CCC/C(CC(=O)c2ccc(O)c(OC)c2)=N\Nc2nnc(C)n2N)c1,,> 100 µM (inactive),> 100 µM (inactive),GI50 (DLD-1): > 100 µM (inactive); GI50 (HOP-18): > 100 µM (inactive); GI50 (M19-MEL): > 100 µM (inactive); GI50 (XF498): > 100 µM (inactive)
O=C1CSC(/C=C/c2ccccc2)N1c1ccc(-n2c(-c3ccccc3)nc3ccccc3c2=O)cc1 (stereo not drawn),> 100 µM (inactive),,,
Cn1c(=O)c2nc(CCCCc3nc4ccccc4[nH]3)[nH]c2n(C)c1=O,> 100 µM (inactive),,,
CC#CC#C/C=C1/C=CC2(CCCCO2)O1 (stereo not drawn),> 100 µM (inactive),,,
O=C(Nc1ccc2ncccc2c1)c1cc2c(cc1Cl)Sc1nccn1S2(=O)=O,15.6 µM (inactive),,,
NC(Cc1c[nH]c2ccc([N+](=O)[O-])cc12)C(=O)O (stereo not drawn),> 100 µM (inactive),,,
CCOC(=O)c1sc2nc(SC)nc3c2c1N=CN3c1ccccc1Cl,26.7 µM (inactive),,,
C=CC[C@H](C)CCC(=O)N1[C@H]2CC3CC[C@@]2(CS1(=O)=O)C3(C)C,78.7 µM (inactive),,,
CCCCCCCCCCCCCC(=O)OC1CC(=O)OC1CO (stereo not drawn),,50.7 µM (inactive),89.3 µM (inactive),GI50 (DLD-1): 34.4 µM (inactive); GI50 (HOP-18): 21.6 µM (inactive); GI50 (M19-MEL): > 100 µM (inactive); GI50 (SNB-78): 37.8 µM (inactive); GI50 (XF498): 65.3 µM (inactive)
CC(C)OC(=O)c1ccc(CCc2cc(O)c(Br)cc2O)cc1,16.4 µM (inactive),,,

# Reference: ChEMBL document CHEMBL1201862, “PubChem BioAssay data set” (2004)
